Reference: US9212138B2, “Use of derivatives of indoles for the treatment of cancer” (CENTRE NATIONAL DE LA RECHERCHE SCIENTIFIQUE, priority 2009, dated 2015)

Target: T1, MKLP-2 (RabK6) (Homo sapiens, UniProt O95235, S2A)
T1 construct: Expression clones for MKLP-21-519 (coding for residues 1 to 519) were obtained as follows; His-tag; made in house; host or cells: E. coli BL21(DE3)
T1 sequence (O95235 1-519 S2A limits assumed): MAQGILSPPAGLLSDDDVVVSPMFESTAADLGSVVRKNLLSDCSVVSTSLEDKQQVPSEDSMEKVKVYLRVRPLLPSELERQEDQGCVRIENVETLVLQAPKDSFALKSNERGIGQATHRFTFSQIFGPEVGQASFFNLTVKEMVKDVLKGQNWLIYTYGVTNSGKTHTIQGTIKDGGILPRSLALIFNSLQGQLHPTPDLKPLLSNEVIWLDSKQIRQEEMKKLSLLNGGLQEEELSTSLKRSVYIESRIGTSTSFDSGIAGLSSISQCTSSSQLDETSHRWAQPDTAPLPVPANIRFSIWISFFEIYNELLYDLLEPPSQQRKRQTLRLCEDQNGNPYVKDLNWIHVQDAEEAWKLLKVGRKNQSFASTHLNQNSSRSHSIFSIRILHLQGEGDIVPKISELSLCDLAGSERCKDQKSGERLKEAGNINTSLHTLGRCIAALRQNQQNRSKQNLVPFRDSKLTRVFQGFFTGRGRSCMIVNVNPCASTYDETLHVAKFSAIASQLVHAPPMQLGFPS
Assay: biochemical
Settings: not given
Procedure: All experiments were performed at room temperature using a 96-well Sunrise photometer (Tecan, Maennedorf, Switzerland) at a final volume of 100 μl per well.
Steady-state ATPase rates were measured using the pyruvate kinase/lactate dehydrogenase-linked assay in buffer A25A (25 mM potassium ACES, pH 6.9, 2 mM MgAc2, 2 mM Na-EGTA, 0.1 mM Na-EDTA, 1 mM β-mercaptoethanol) supplemented with 1 mM MgATP; 2 mM PEP; 0.25 mM NADH; 3-10 μg/ml pyruvate kinase; 3 μg/ml lactate dehydrogenase and 8 μM taxol.
The data were analyzed using Kaleidagraph 3.0 (Synergy Software, Reading, Pa.) and Microsoft Excel to obtain the kinetic variables.
When necessary, the inhibitor concentrations were adapted depending on the initial IC50 value. Experiments were performed in triplicate and averaged data points are shown with error bars±SD.

Compared with N#C/C(=C\c1cccc(C#N)c1)c1c[nH]c2ccc(O)cc12 [Example 55, (Z)-3-[2-cyano-2-(5-hydroxy-1H-indol-3-yl)-vinyl]-benzonitrile], C#C/C(=C\c1cccnc1)c1c[nH]c2ccc(OC)cc12 [Example 58, (E)-5-methoxy-3-(1-(pyridin-3-yl)but-1-en-3-yn-2-yl)-1H-indole] is higher in IC50: < 5 µM for the first, 5 to 10 µM for the second.

First: NC(=O)/C(=C\c1cccnc1)c1c[nH]c2ccccc12 [Example 56, (Z)-2-(1H-indol-3-yl)-3-pyridin-3-yl-acrylamide]
Second: N#C/C(=N\c1cccnc1)c1c[nH]c2ccccc12 [Example 61, (Z)-(1H-indol-3-yl)-(pyridin-3-ylimino)-acetonitrile]
The IC50 of the first is higher: > 50 µM for the first, < 5 µM for the second. The second is the more potent here.

With COc1ccc2[nH]cc(/C(C#N)=C(\C)c3cccnc3)c2c1 [Example 60, (Z)-2-(5-methoxy-1H-indol-3-yl)-3-(pyridin-3-yl)-but-2-enenitrile] the IC50 was < 5 µM.

System: not listed separately
Assay: Activity of side products, test not stated
Settings: side product of the synthesis

With NC(=O)/C(=C/c1cccnc1)c1c[nH]c2ccccc12 the activity was “no activity”.
In the case of CCOc1ccncc1/C=C(\C#N)c1c[nH]c2ccc(OC)cc12 [Example 47b], the activity is reported as “no activity”.
